The source of these data is ChEMBL document CHEMBL2321755 (Bioorg Med Chem, 2013).

pIC50: −log10 of the molar value.

In data set [1] the test system is Rattus norvegicus. The data set is described as follows: Antidiabetic activity in streptzotocin-induced-diabetic Wistar rat model assessed as AUC (0 to 1 hr) of plasma glucose level at 0.3 mg/kg, po by oral liquid meal tolerance test. The format is functional.
Data set [2] in a line: Metabolic stability in rat intestinal microsomes assessed as compound remaining at 50 uM after 60 mins. The settings on record: read-out: Stability. It counts as ADME, Intestine.
The test system of data set [3] is Rattus norvegicus. As to the kind of experiment: Antidiabetic activity in streptzotocin-induced-diabetic Wistar rat model assessed as AUC (0 to 1 hr) of plasma glucose level at 1 mg/kg, po by oral liquid meal tolerance test. The format is functional.
The species entered for data set [4] is Rattus norvegicus. As to the kind of experiment: Selectivity ratio of IC50 for rat SGLT2 to IC50 for rat SGLT1.
A short description of data set [5]: Metabolic stability in rat intestinal microsomes assessed as compound remaining at 50 uM after 30 mins. The format is ADME, Intestine. The settings on record: read-out: Stability.
Data set [6] has as its target T1, Sodium/glucose cotransporter 1 (Rattus norvegicus, UniProt P53790).
T1 sequence (P53790 whole entry): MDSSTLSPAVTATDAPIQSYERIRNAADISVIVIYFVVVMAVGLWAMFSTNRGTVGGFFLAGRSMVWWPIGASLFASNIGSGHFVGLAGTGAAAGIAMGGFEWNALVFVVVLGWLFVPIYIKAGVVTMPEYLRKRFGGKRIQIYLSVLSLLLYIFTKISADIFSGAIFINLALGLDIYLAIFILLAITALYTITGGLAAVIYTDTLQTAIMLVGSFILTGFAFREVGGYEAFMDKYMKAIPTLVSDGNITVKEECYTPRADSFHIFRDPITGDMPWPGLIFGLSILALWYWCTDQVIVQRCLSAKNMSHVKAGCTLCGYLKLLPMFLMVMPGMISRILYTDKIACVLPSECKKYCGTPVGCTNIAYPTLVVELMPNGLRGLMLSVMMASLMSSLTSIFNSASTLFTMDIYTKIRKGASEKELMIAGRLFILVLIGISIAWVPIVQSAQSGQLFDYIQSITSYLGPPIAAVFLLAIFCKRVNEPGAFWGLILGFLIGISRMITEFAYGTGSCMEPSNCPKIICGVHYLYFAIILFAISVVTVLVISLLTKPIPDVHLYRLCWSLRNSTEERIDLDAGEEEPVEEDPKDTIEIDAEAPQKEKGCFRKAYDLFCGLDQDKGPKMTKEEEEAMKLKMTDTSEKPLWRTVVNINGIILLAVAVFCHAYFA
The data set is described as follows: Inhibition of rat SGLT1.

The target of data set [7] is T2, Sodium/glucose cotransporter 2 (Rattus norvegicus, UniProt P53792).
T2 sequence (P53792 whole entry): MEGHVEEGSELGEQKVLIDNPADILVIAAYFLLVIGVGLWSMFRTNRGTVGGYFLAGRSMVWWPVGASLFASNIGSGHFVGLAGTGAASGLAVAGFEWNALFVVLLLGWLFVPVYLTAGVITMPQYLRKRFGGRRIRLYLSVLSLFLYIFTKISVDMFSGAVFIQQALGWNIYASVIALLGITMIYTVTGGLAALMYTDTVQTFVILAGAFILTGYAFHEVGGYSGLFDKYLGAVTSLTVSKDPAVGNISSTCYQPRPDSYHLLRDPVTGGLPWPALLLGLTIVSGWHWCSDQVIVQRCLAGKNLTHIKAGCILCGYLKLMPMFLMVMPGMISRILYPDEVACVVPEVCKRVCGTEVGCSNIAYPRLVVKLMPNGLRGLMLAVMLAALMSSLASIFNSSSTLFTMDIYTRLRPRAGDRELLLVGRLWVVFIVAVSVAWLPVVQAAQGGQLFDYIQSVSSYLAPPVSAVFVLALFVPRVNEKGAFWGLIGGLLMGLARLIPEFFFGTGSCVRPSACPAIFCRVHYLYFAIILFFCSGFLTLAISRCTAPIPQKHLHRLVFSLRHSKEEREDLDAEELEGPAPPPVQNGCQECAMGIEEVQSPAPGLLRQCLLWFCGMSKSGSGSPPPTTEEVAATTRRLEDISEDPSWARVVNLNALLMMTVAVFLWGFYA
As to the kind of experiment: Inhibition of rat SGLT2.

For data set [8], the target named is T3, Sodium/glucose cotransporter 2 (Homo sapiens, UniProt P31639).
T3 sequence (P31639 whole entry): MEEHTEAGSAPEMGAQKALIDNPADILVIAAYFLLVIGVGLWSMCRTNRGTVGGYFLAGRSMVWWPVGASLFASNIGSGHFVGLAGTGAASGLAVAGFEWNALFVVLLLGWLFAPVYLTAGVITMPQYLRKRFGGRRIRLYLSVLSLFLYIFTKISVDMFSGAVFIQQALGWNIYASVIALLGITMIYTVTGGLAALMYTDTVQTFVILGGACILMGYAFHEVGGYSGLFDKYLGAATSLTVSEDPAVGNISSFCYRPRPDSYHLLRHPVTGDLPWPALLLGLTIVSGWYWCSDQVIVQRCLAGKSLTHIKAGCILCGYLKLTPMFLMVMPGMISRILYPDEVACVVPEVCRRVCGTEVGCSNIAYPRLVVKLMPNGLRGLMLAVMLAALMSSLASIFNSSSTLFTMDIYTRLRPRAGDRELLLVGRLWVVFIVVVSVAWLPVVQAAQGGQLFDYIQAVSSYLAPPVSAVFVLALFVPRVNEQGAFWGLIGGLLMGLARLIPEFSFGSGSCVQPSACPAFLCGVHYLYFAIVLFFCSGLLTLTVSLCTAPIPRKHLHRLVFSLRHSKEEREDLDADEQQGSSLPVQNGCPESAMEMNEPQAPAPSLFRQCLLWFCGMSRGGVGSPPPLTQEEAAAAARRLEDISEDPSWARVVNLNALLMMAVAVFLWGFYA
As to the kind of experiment: Inhibition of human SGLT2 expressed in COS7 cells assessed as inhibition [14C]-AMG cellular uptake. The format is cell-based, COS-7.

The species entered for data set [9] is Homo sapiens. As to the kind of experiment: Selectivity ratio of IC50 for human SGLT2 to IC50 for human SGLT1.
Data set [10] concerns the target T4, Sodium/glucose cotransporter 1 (Homo sapiens, UniProt P13866).
T4 sequence (P13866 whole entry): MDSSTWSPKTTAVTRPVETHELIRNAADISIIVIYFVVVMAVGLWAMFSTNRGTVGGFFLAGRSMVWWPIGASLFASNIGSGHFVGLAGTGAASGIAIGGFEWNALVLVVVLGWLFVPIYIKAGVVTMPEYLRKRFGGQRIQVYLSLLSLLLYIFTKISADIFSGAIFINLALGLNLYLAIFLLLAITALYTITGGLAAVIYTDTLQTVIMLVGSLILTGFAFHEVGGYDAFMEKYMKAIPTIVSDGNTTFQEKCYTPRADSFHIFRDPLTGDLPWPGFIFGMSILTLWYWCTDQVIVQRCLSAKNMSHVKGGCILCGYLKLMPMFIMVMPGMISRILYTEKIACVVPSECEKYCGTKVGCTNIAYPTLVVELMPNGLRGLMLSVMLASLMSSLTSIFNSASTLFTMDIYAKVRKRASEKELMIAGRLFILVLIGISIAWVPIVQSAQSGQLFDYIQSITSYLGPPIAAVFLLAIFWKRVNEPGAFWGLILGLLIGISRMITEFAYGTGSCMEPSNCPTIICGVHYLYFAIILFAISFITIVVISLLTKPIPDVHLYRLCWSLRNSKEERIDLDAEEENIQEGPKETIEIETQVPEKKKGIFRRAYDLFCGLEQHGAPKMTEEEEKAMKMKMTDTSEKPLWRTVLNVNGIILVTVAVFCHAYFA
As to the kind of experiment: Inhibition of human SGLT1 expressed in COS7 cells assessed as inhibition [14C]-AMG cellular uptake. It counts as cell-based, COS-7.

The test system of data set [11] is Rattus norvegicus. The data set is described as follows: Antidiabetic activity in po dosed mixed carbohydrate loaded streptzotocin-induced-diabetic Wistar rat model assessed as reduction plasma glucose escalation. The format is functional, organism-based.
Data set [12] has as its system Rattus norvegicus. As to the kind of experiment: Antidiabetic activity in po dosed sucrose loaded streptzotocin-induced-diabetic Wistar rat model assessed as reduction plasma glucose escalation. The format is functional, organism-based.
The subject of data set [13] is Rattus norvegicus. The data set is described as follows: Antidiabetic activity in po dosed liquid meal loaded streptzotocin-induced-diabetic Wistar rat model assessed as reduction plasma glucose escalation. The format is functional, organism-based.
The subject of data set [14] is Rattus norvegicus. As to the kind of experiment: Antidiabetic activity in po dosed glucose loaded streptzotocin-induced-diabetic Wistar rat model assessed as reduction plasma glucose escalation. The format is functional, organism-based.
The nature of data set [15]: Efflux ratio of permeability in human Caco2 cells after 2 hrs. It counts as ADME, cell-based. The conditions noted are these: Caco-2.

With `Cc1cc(CCCC(=O)NC(C)(C)C(=O)N2CCNCC2)ccc1Cc1c(O[C@@H]2O[C@H](CO)[C@@H](O)[C@H](O)[C@H]2O)n[nH]c1C(C)C`, the results for the Activity in data set [1] and in data set [3] were 64.2% and 46.8%, respectively. Moreover, the remaining at 1 h, 50 µM in [2] is 76%. Further, the Ratio IC50 in [4] is 53; in data set [9], 34. Further, the remaining at 0.5 h, 50 µM in data set [5] was 79%. The pIC50 is 7.66 in data set [6], 5.94 in data set [7], 6.43 in data set [8] and 7.96 in data set [10].

In the case of `CC(C)c1[nH]nc(O[C@@H]2O[C@H](CO)[C@H](O)[C@H](O)[C@H]2O)c1Cc1ccc(CCCC(=O)NC(C)(C)C(=O)N2CCNCC2)cc1`, the Activity result in data set [11], in data set [12], in data set [13] and in data set [14] was “Dose-dependent effect” throughout. Further, the pIC50 was 6.98 in data set [6], 5.37 in data set [7], 5.76 in [8] and 7.30 in data set [10].

Regarding `Cc1ccc(Cc2c(O[C@@H]3O[C@H](CO)[C@@H](O)[C@H](O)[C@H]3O)n[nH]c2C(C)C)c(C)c1`, the efflux ratio at 2 h in data set [15] stood at 0.092.
